Measured values: ChEMBL document CHEMBL6071160, “Identification of a novel 10-hydroxyevodiamine prodrug as a potent topoisomerase inhibitor with improved aqueous solubility for treatment of hepatocellular carcinoma” (Eur J Med Chem, 2024)
Values after ≈ are worked out from the molar mass of the structure shown.

Key:
[1] = system: Huh-7; assay: Antiproliferative activity against human Huh-7 cells assessed as inhibition of cell proliferation incubated for 72 hrs by MTT assay; assay type: functional, cell-based; settings: Huh-7, 72 h
[2] = system: HepG2; assay: Antiproliferative activity against human HepG2 cells assessed as inhibition of cell proliferation incubated for 72 hrs by MTT assay; assay type: functional, cell-based; settings: HepG2, 72 h
[3] = system: SK-HEP1; assay: Antiproliferative activity against human SK-HEP1 cells assessed as inhibition of cell proliferation incubated for 72 hrs by MTT assay; assay type: functional, cell-based; settings: SK-HEP1, 72 h
[4] = Aqueous solubility of the compound […] measured after 72 hrs in shaking by HPLC analysis; assay type: physicochemical
[5] = system: SMMC-7721; assay: Antiproliferative activity against human SMMC-7721 cells assessed as inhibition of cell proliferation incubated for 72 hrs by MTT assay; assay type: functional, cell-based; settings: SMMC-7721, 72 h
[6] = Antiproliferative activity against human Doxorubicin-resistant SMMC-7721 cell assessed as inhibition of cell proliferation incubated for 72 hrs by MTT assay; assay type: functional, cell-based; settings: SMMC-7721, 72 h
[7] = Drug resistance index, ratio of IC50 for antiproliferative activity against human SMMC-7721 cells to antiproliferative activity against human Doxorubicin-resistant SMMC-7721 cells; assay type: functional
[8] = system: Huh-7; assay: Induction of cell cycle arrest in human Huh-7 cells assessed as accumulation of cells at G1 phase 80 nM measured after 24 hrs by flow cytometric assay (reference value: 63.01%); assay type: functional
[9] = system: Huh-7; assay: Induction of cell cycle arrest in human Huh-7 cells assessed as accumulation of cells at G2 phase 80 nM measured after 24 hrs by flow cytometric assay (reference value: 13.66%); assay type: functional
[10] = system: Huh-7; assay: Induction of cell cycle arrest in human Huh-7 cells assessed as accumulation of cells at S phase 80 nM measured after 24 hrs by flow cytometric assay (reference value: 23.33%); assay type: functional
[11] = system: SK-HEP1; assay: Induction of cell cycle arrest in human SK-HEP1 cells assessed as accumulation of cells at G1 phase 80 nM measured after 24 hrs by flow cytometric assay (reference value: 47.55%); assay type: functional
[12] = system: SK-HEP1; assay: Induction of cell cycle arrest in human SK-HEP1 cells assessed as accumulation of cells at G2 phase 80 nM measured after 24 hrs by flow cytometric assay (reference value: 22.41%); assay type: functional
[13] = system: SK-HEP1; assay: Induction of cell cycle arrest in human SK-HEP1 cells assessed as accumulation of cells at S phase 80 nM measured after 24 hrs by flow cytometric assay (reference value: 30.04%); assay type: functional
[14] = system: Huh-7; assay: Induction of apoptosis in human Huh-7 cells assessed as viable cells at 80 nM measured after 24 hrs by Annexin-V-FITC/PI analysis (reference value: 97.46%); assay type: functional; settings: read-out: Activity
[15] = system: Huh-7; assay: Induction of apoptosis in human Huh-7 cells assessed as early apoptotic cells at 80 nM measured after 24 hrs by Annexin-V-FITC/PI analysis (reference value: 1.04%); assay type: functional
[16] = system: Huh-7; assay: Induction of apoptosis in human Huh-7 cells assessed as late apoptotic cells at 80 nM measured after 24 hrs by Annexin-V-FITC/PI analysis (reference value: 1.23%); assay type: functional
[17] = system: Huh-7; assay: Induction of apoptosis in human Huh-7 cells assessed as necrotic cells at 80 nM measured after 24 hrs by Annexin-V-FITC/PI analysis (reference value: 0.27%); assay type: functional
[18] = system: SK-HEP1; assay: Induction of apoptosis in human SK-HEP1 cells assessed as viable cells at 80 nM measured after 24 hrs by Annexin-V-FITC/PI analysis (reference value: 97.20%); assay type: functional; settings: read-out: Activity
[19] = system: SK-HEP1; assay: Induction of apoptosis in human SK-HEP1 cells assessed as early apoptotic cells at 80 nM measured after 24 hrs by Annexin-V-FITC/PI analysis (reference value: 1.45%); assay type: functional
[20] = system: SK-HEP1; assay: Induction of apoptosis in human SK-HEP1 cells assessed as late apoptotic cells at 80 nM measured after 24 hrs by Annexin-V-FITC/PI analysis (reference value: 0.64%); assay type: functional
[21] = system: SK-HEP1; assay: Induction of apoptosis in human SK-HEP1 cells assessed as necrotic cells at 80 nM measured after 24 hrs by Annexin-V-FITC/PI analysis (reference value: 0.70%); assay type: functional
[22] = system: Huh-7; assay: Induction of apoptosis in human Huh-7 cells assessed as loss of mitochondrial membrane potential by measuring JC-1 stained cells at 80 nM measured after 24 hrs by JC-1 staining based flow cytometry (reference value: 2.27%); assay type: functional
[23] = system: SK-HEP1; assay: Induction of apoptosis in human SK-HEP1 cells assessed as loss of mitochondrial membrane potential by measuring JC-1 stained cells at 80 nM measured after 24 hrs by JC-1 staining based flow cytometry (reference value: 0.49%); assay type: functional
[24] = system: Huh-7; assay: Induction of apoptosis in human Huh-7 cells assessed as ROS generation by measuring DCFH2-DA stained cells at 80 nM measured after 24 hrs […] (reference value: 0.45%); assay type: functional
[25] = system: SK-HEP1; assay: Induction of apoptosis in human SK-HEP1 cells assessed as ROS generation by measuring DCFH2-DA stained cells at 80 nM measured after 24 hrs […] (reference value: 0.14%); assay type: functional

| Structure (SMILES) | IC50 [1] [µM] | IC50 [2] [µM] | IC50 [3] [µM] | solubility thermodynamic at 72 h [4] [µg/mL] | also measured |
| --- | --- | --- | --- | --- | --- |
| COCCOc1ccc2[nH]c3c(c2c1)CCN1C(=O)c2cc(F)cc(F)c2N(c2cccc(F)c2)C31 (stereo not drawn) | 1.53 | 1.28 | 1.58 | 1.3 (≈ 2.63 µM) |  |
| COCCCOc1ccc2[nH]c3c(c2c1)CCN1C(=O)c2cc(F)cc(F)c2N(c2cccc(F)c2)C31 (stereo not drawn) | > 1.62 | > 1.62 | > 1.62 | 71.4 (≈ 141 µM) |  |
| O=C1c2cc(F)cc(F)c2N(c2cccc(F)c2)C2c3[nH]c4ccc(OCCCN5CCCC5)cc4c3CCN12 (stereo not drawn) | > 1.62 | > 1.62 | > 1.62 | 61.1 (≈ 112 µM) |  |
| COc1cccc2c1C(=O)c1c(O)c3c(c(O)c1C2=O)C[C@@](O)(C(=O)CO)C[C@@H]3O[C@H]1C[C@H](N)[C@H](O)[C@H](C)O1 [DOXORUBICIN] |  |  |  |  | IC50 [5]: 0.15 µM; IC50 [6]: 1.35 µM; Ratio [7]: 9 |
| O=C1c2cc(F)cc(F)c2N(c2cccc(F)c2)C2c3[nH]c4ccc(OCCN5CCCCC5)cc4c3CCN12 (stereo not drawn) | > 1.62 | > 1.62 | > 1.62 | 34.3 (≈ 62.8 µM) |  |
| CC[C@@]1(O)C(=O)OCc2c1cc1n(c2=O)Cc2cc3c(CN(C)C)c(O)ccc3nc2-1 [TOPOTECAN] | 3.75 | 1.04 | 1.51 |  |  |
| O=C1c2cc(F)cc(F)c2N(c2cccc(F)c2)C2c3[nH]c4ccc(OCCN5CCNCC5)cc4c3CCN12 (stereo not drawn) | > 1.62 | > 1.62 | > 1.62 | 50.5 (≈ 92.2 µM) |  |
| CN(C)CC(=O)Oc1ccc2[nH]c3c(c2c1)CCN1C(=O)c2cc(F)cc(F)c2N(c2cccc(F)c2)C31 (stereo not drawn) | 0.04 | 0.1 | 0.03 | 8.7 (≈ 16.7 µM) |  |
| O=C1c2cc(F)cc(F)c2N(c2cccc(F)c2)C2c3[nH]c4ccc(OCCCN5CCOCC5)cc4c3CCN12 (stereo not drawn) | > 1.62 | > 1.62 | > 1.62 | 11.6 (≈ 20.6 µM) |  |
| CC(O)COc1ccc2[nH]c3c(c2c1)CCN1C(=O)c2cc(F)cc(F)c2N(c2cccc(F)c2)C31 (stereo not drawn) | 0.19 | 0.51 | 0.73 | 12.2 (≈ 24.7 µM) |  |
| O=C(CO)Oc1ccc2[nH]c3c(c2c1)CCN1C(=O)c2cc(F)cc(F)c2N(c2cccc(F)c2)C31 (stereo not drawn) | 0.07 | 0.18 | 0.04 | 0.7 (≈ 1.42 µM) |  |
| COCC(=O)Oc1ccc2[nH]c3c(c2c1)CCN1C(=O)c2cc(F)cc(F)c2N(c2cccc(F)c2)C31 (stereo not drawn) | 0.04 | 0.09 | 0.04 | 3 (≈ 5.91 µM) |  |
| COP(=O)(OC)Oc1ccc2[nH]c3c(c2c1)CCN1C(=O)c2cc(F)cc(F)c2N(c2cccc(F)c2)C31 (stereo not drawn) | > 1.62 | > 1.62 | > 1.62 | 1.9 (≈ 3.5 µM) |  |
| CNC(=O)c1cc(Oc2ccc(NC(=O)Nc3ccc(Cl)c(C(F)(F)F)c3)cc2)ccn1 [SORAFENIB] |  |  |  |  | IC50 [5]: 3.46 µM; IC50 [6]: 5.12 µM |
| O=C(O)CCC(=O)Oc1ccc2[nH]c3c(c2c1)CCN1C(=O)c2cc(F)cc(F)c2N(c2cccc(F)c2)C31 (stereo not drawn) | 0.02 | 0.07 | 0.09 | 6.1 (≈ 11.4 µM) |  |
| O=C1c2cc(F)cc(F)c2N(c2cccc(F)c2)C2c3[nH]c4ccc(OCCCN5CCCCC5)cc4c3CCN12 (stereo not drawn) | > 1.62 | > 1.62 | > 1.62 | 100 (≈ 179 µM) |  |
| O=C1c2cc(F)cc(F)c2N(c2cccc(F)c2)C2c3[nH]c4ccc(OCCN5CCOCC5)cc4c3CCN12 (stereo not drawn) | > 1.62 | > 1.62 | > 1.62 | 9.5 (≈ 17.3 µM) |  |
| CN(C)CCC(=O)Oc1ccc2[nH]c3c(c2c1)CCN1C(=O)c2cc(F)cc(F)c2N(c2cccc(F)c2)C31 (stereo not drawn) | 0.04 | 0.04 | 0.04 | 11.8 (≈ 22.1 µM) |  |
| CN(C)C(=O)Oc1ccc2[nH]c3c(c2c1)CCN1C(=O)c2cc(F)cc(F)c2N(c2cccc(F)c2)C31 (stereo not drawn) | > 1.62 | > 1.62 | > 1.62 | 3.1 (≈ 6.12 µM) |  |
| O=C(CCN1CCCC1)Oc1ccc2[nH]c3c(c2c1)CCN1C(=O)c2cc(F)cc(F)c2N(c2cccc(F)c2)C31 (stereo not drawn) | 0.04 | 0.08 | 0.03 | 10.1 (≈ 18 µM) |  |
| O=C1c2cc(F)cc(F)c2N(c2cccc(F)c2)C2c3[nH]c4ccc(O)cc4c3CCN12 (stereo not drawn) | 0.05 |  |  | 1 (≈ 2.3 µM) | Activity [8]: 5.79%; Activity [9]: 86.71%; Activity [10]: 7.51%; Activity [11]: 8.18%; Activity [12]: 66.31%; Activity [13]: 25.51%; viability at 0.08 µM [14]: 81.1%; Activity [15]: 6.84%; Activity [16]: 10.46%; Activity [17]: 1.63%; viability at 0.08 µM [18]: 66.2%; Activity [19]: 22.1%; Activity [20]: 10.49%; Activity [21]: 1.19%; Activity [22]: 10.62%; Activity [23]: 10.75%; Activity [24]: 31.15%; Activity [25]: 61.44% |
| O=C(O)COc1ccc2[nH]c3c(c2c1)CCN1C(=O)c2cc(F)cc(F)c2N(c2cccc(F)c2)C31 (stereo not drawn) | > 1.62 | > 1.62 | > 1.62 | 72.5 (≈ 147 µM) |  |
| CN(C)CCOc1ccc2[nH]c3c(c2c1)CCN1C(=O)c2cc(F)cc(F)c2N(c2cccc(F)c2)C31 (stereo not drawn) | 0.43 | 0.8 | 1.38 | 53 (≈ 105 µM) |  |
| O=C(Oc1ccc2[nH]c3c(c2c1)CCN1C(=O)c2cc(F)cc(F)c2N(c2cccc(F)c2)C31)N1CCC(N2CCCCC2)CC1 (stereo not drawn) | > 1.62 | > 1.62 | > 1.62 | 34.5 (≈ 54.8 µM) |  |
| O=C(Oc1ccc2[nH]c3c(c2c1)CCN1C(=O)c2cc(F)cc(F)c2N(c2cccc(F)c2)C31)N1CCNCC1 (stereo not drawn) | > 1.62 | > 1.62 | > 1.62 | 1.5 (≈ 2.74 µM) |  |
| O=C1c2cc(F)cc(F)c2N(c2cccc(F)c2)C2c3[nH]c4ccc(OCCO)cc4c3CCN12 (stereo not drawn) | 0.12 | 0.28 | 0.2 | 9.5 (≈ 19.8 µM) |  |
| CN1CCN(CCOc2ccc3[nH]c4c(c3c2)CCN2C(=O)c3cc(F)cc(F)c3N(c3cccc(F)c3)C42)CC1 (stereo not drawn) | > 1.62 | > 1.62 | > 1.62 | 103 (≈ 183 µM) |  |
| CC(C)(O)COc1ccc2[nH]c3c(c2c1)CCN1C(=O)c2cc(F)cc(F)c2N(c2cccc(F)c2)C31 (stereo not drawn) | 0.53 | 1.24 | 0.92 | 2.5 (≈ 4.93 µM) |  |
| CCN(CC)C(=O)Oc1ccc2[nH]c3c(c2c1)CCN1C(=O)c2cc(F)cc(F)c2N(c2cccc(F)c2)C31 (stereo not drawn) | > 1.62 | > 1.62 | > 1.62 | 5.5 (≈ 10.3 µM) |  |
